Source: US9200253B1, “Method of producing erythrocytes” (Anthrogenesis Corporation, priority 2007, dated 2015)

Assays:
CD34+ cells = assay: Scaled-up CD34+ expansion in gas-permeable fluorocarbon culture bag; type: cell-based, human
Description: CD34^+ cells were seeded in 10^4/mL pomalidomide-supplemented medium in a flexible, gas-permeable fluorocarbon culture bag (American Fluoroseal). After 7 days of incubation, the culture was centrifuged and exchanged with fresh pomalidomide-supplemented medium at three times the initial volume. By day 12, TNC and CD34^+ expansion were 350 (range: 250-700) and 200 (range: 100-450) fold, respectively (FIG. 3). Viability was 86% (range: 80-90%) by trypan blue. A total of 20 million CD34^+ cells were harvested.

[1] = system: Pomalidomide-expanded CD34+ cells; assay: Cumulative colony forming units of expanded CD34+ cells; type: cell-based, human
[2] = system: human UCB derived CD34+ cells; assay: Ex-vivo expansion of CD34+ cells in short-term serum-free, cytokine supplemented culture; type: cell-based; conditions: for CD34+ phenotype in the expanded population: control 10-30%; for total nucleated cell expansion: not impacted vs control
Description: The ability of pomalidomide to enhance the expansion of human UCB derived CD34^+ cells in a short-term serum-free, cytokine supplemented culture system was evaluated. CD34^+ progenitor cells were enriched from cryopreserved UCB units to >90% purity and seeded (10^4 CD34^+ cells) in 1 mL of growth medium, which consists of IMDM plus serum substitute BIT (BSA, recombinant human insulin and transferrin, 20%), in the presence of SCF (50 ng/mL), Flt-3 ligand (50 ng/mL), and IL-3 (10 ng/mL). Pomalidomide, dissolved in DMSO, was supplemented at 2.7 μg/mL. The culture was incubated at 37° C., 5% CO2 for 12 days, with fresh medium added at day 7. Pomalidomide-free cultures with or without DMSO (0.05% v/v) were used as controls.

[3] = day 12, seeded 10^4/mL, medium exchanged day 7 (FIG. 3)
[4] = first experiment, 2.7 μg/mL, 12 days

**Q.** What does the source list for `Nc1cccc2c1C(=O)N(C1CCC(=O)NC1=O)C2=O` (centres unmarked) [pomalidomide, 4-(Amino)-2-(2,6-dioxo(3-piperidyl))-isoindoline-1,3-dione]?
**A.** Viability by trypan blue (CD34+ cells; day 12): 86%; total CD34+ cells harvested (CD34+ cells; day 12): 20 million; CD34+ expansion (CD34+ cells; [3]): 200 (range: 100-450) fold; TNC expansion (CD34+ cells; [3]): 350 (range: 250-700) fold; ex-vivo expansion of placental derived CD34+ progenitors (CD34+ cells; overall conclusion): significantly enhanced; cumulative colony forming units relative to expanded controls ([1]; first experiment): substantial improvement; cumulative colony forming units relative to expanded controls ([1]; second, similar experiment): substantial improvement; CD38 expression on cultured cells [2, 4]: appeared to down-regulate CD38 expression; CD38 negative fraction of expanded CD34+ cells [2, 4]: 95%; CD34+ phenotype in the expanded population [2, 4]: 40-60%; CD133 level on expanded CD34+ cells ([2]; first experiment, 2.7 μg/mL, 12 days, control 40%): 15%; total nucleated cell expansion ([2]; first experiment, pomalidomide 2.7 μg/mL, 12 days): 200-350 fold; CD38 expression on cultured cells ([2]; second, similar experiment): appeared to down-regulate CD38 expression; CD38 negative fraction of expanded CD34+ cells ([2]; second, similar experiment): 97%; CD34+ phenotype in the expanded population ([2]; second, similar experiment (FIG. 2)): 40-60%; total nucleated cell expansion ([2]; second, similar experiment, 2.7 μg/mL, 12 days): 200-350 fold; CD133 level on expanded CD34+ cells ([2]; second, similar experiment, control 32.3%): 11.5%
